Measured values reported in article PMC6096457, “Modified translationally controlled tumor protein-derived protein transduction domain enhances nasal delivery of exendin-4 as shown with insulin” (Drug Delivery, 2018).

Experiment: Visual inspection for cloudiness (turbidity) and precipitation
Format: physicochemical
Details: mixtures in 10 mM phosphate buffer pH 6.4
Description: All exendin-4/PTD mixtures were clear.

Question: For “MIIFRLLAYHKK [TCTP-PTD 13M3, substitution S9Y of TCTP-PTD 13M2]”, which “cloudiness (turbidity) and precipitation” value is on record?
Answer: did not form any precipitations
